# Test results as given in patent US20130296412A1, “Artemisinin-Like Derivatives with Cytotoxic and Anti-Angiogenic Properties” (DAFRA PHARMA N.V., priority 2010, published 2013).
# Like-named read-outs stand apart in the source and are kept apart here.
# What was measured:
# [1] = tested on: P-gp expressed in porcine capillaries; experiment: Transport of NBD-CSA into porcine brain capillary lumens (confocal microscopy); format: cell-based
# From the text: Luminal P-gp was inhibited by a well-known selective P-gylcoprotein inhibitor, PSC-833.
# [2] = tested on: zebrafish embryos; experiment: Tg(fli1:EGFP) zebrafish embryo in vivo angiogenesis assay; conditions: for Anti-angiogenic effect (in words): zebrafish embryos, concentration range; for Concentration at which intersomitic vessel (ISV) formation was suppressed: as low as, toxicity evident above
# Experimental: Tg(fli1:EGFP) zebrafish, which express enhanced green fluorescent protein (GFP) in their endothelial cells, were used as an in vivo model for angiogenesis. At 20 hours post-fertilization (hpf), zebrafish embryos (10 per well/condition) were bathed in fish media, containing a concentration range of each of the compounds or control. Compounds had been dissolved as stock solutions in DMSO, stored at room temperature, and serially diluted in fish media prior to use. The anti-angiogenic tyrosinase kinase inhibitor SU5416 (Pfizer), and a vehicle-alone control containing the maximum concentration of DMSO were used as controls in all experiments.
# In the first sets of experiments, a broad range of concentrations were used to identify the maximum tolerable dose, based on toxicity to the embryos, visualized directly by light microscopy. Subsequent experiments were performed a minimum of two times. Live analyses of the embryos were performed under light and fluorescence microscopy at 28 hpf and 48 hpf to monitor viability, overall morphology, and pattern of swimming. Angiogenesis was evaluated visually by fluorescence microscopy.
# The developmental growth and patterning of the dorsal aorta, posterior cardinal vein, intersomitic vessels (ISV), and vascular plexus (VP) were monitored, as was the heart rate, and blood flow.
# Eight compounds (4, 7, 8, 9, 10, 11, 12 and 15) were compared to artesunate for their anti-angiogenic potential using an in vivo zebrafish embryo model system (Table III blow). DMSO at concentrations of 0.5, 1, and 2% was used as vehicle control. No effects were observed on overall morphology, heart rate, blood flow, or angiogenesis in control embryos. The anti-angiogenic agent SU5416 was used as a positive control.
# [3] = tested on: CEM/ADR5000 leukemia cells (P-glycoprotein-overexpressing); experiment: XTT cytotoxicity assay, multidrug-resistant cells; format: cell-based, human; conditions: for Degree of resistance: CEM/ADR5000 versus CCRF-CEM
# Experimental: (§1) Multidrug-resistant, P-glycoprotein-overexpressing CEM/ADR5000 cells and their parental, drug-sensitive counterpart, CCRF-CEM cells were used. The cell lines were provided by Dr. Daniel Steinbach (University of Ulm, Ulm, Germany).
# (§2) Doxorubicin resistance of CEM/ADR5000 was maintained as described. […] The cell lines were maintained in RPMI medium (Life Technologies) supplemented with 10% FCS in a humidified 7% CO2 atmosphere at 37° C. Cells were passaged twice weekly. All experiments were done with cells in the logarithmic growth
# (§3) Cytotoxicity was assessed using the 2,3-bis[2-methoxy-4-nitro-5-sulfophenyl]-2H-tetrazolium-5-carboxanilide inner salt (XTT) assay kit (Roche, Indianapolis, Ind.), which measures the metabolic activity of viable cells. Toxicity of compounds was determined with the Cell Proliferation Kit II (Roche Diagnostics, Mannheim, Germany), according to the manufacturer's instructions.
# Fresh stock solutions of each compound were prepared in DMSO at a concentration of 100 mM, and a dilution series was prepared in DMEM. […] Marginal wells were filled with 100 μL of media to minimize evaporation. A row of wells with cells was left untreated and another row of wells with cells was treated with 1 μL DMSO, the latter serving as a solvent control. All studies were performed in duplicate, in a range of concentrations, and in two independent experiments with different batches of cells.
# (§4) The ligand binding module of Sigma plot software (version 10.0) was used for analysis.
# (§5) All compounds were tested both towards drug-sensitive CCRF-CEM leukemia cells and their multidrug-resistant subline, CEM/ADR5000.
# [4] = tested on: HUVEC cells; experiment: VEGF-induced HUVEC proliferation/viability assay (WST1); format: cell-based, human; conditions: for Inhibition of proliferation and survival of HUVECs: 30 ng/ml VEGF165, 0.5-100 μM, 96 hrs
# Experimental: Single donor HUVEC cells were purchased from Lonza (Breda, Netherlands). Cells were seeded at 5,000 cells per well in 96-well microtiterplates in EGM-2EV medium (Invitrogen). Upon adherence the cells were gently washed twice with PBS and starved overnight in EGM-2EV medium with reduced FBS content (0.1%; starvation medium).
# After 96 hrs, cell growth was quantified using the WST1 Rapid cell proliferation kit (Calbiochem), and was expressed in percentage of the control value (VEGF alone). Experiments were carried out in triplets.
# To further evaluate the anti-angiogenic potential of the present novel compounds, proliferation and survival of human umbilical vein endothelial cells (HUVECs) treated with VEGF and two compounds that were very active in the zebrafish model were assayed.
# [5] = tested on: CCRF-CEM leukemia cells; experiment: XTT cytotoxicity assay, drug-sensitive cells; format: cell-based, human
# Experimental: as §1, §2, §3
# Fresh stock solutions of each compound were prepared in DMSO at a concentration of 100 mM, and a dilution series was prepared in DMEM. Cells were suspended at a final concentration of 1×10^5 cells/ml, and […] were aliquoted per well into a 96-well culture plate (Costar, Corning, USA). Marginal wells were filled with 100 μL of media to minimize evaporation. A row of wells with cells was left untreated and another row of wells with cells was treated with 1 μL DMSO, the latter serving as a solvent control. All studies were performed in duplicate, in a range of concentrations, and in two independent experiments with different batches of cells.
# as §4, §5
# [6] = molecular target: T1, P-glycoprotein (P-gp) (Homo sapiens, UniProt P08183); experiment: Calcein-AM assay with flow cytometry in CEM/ADR5000 cells; conditions: for EC max (intracellular calcein fluorescence compared to untreated controls) / EC50: CEM/ADR5000 cells, flow cytometry; for EC50: read-out: EC50 calcein-AM assay
# T1 sequence (P08183 whole entry): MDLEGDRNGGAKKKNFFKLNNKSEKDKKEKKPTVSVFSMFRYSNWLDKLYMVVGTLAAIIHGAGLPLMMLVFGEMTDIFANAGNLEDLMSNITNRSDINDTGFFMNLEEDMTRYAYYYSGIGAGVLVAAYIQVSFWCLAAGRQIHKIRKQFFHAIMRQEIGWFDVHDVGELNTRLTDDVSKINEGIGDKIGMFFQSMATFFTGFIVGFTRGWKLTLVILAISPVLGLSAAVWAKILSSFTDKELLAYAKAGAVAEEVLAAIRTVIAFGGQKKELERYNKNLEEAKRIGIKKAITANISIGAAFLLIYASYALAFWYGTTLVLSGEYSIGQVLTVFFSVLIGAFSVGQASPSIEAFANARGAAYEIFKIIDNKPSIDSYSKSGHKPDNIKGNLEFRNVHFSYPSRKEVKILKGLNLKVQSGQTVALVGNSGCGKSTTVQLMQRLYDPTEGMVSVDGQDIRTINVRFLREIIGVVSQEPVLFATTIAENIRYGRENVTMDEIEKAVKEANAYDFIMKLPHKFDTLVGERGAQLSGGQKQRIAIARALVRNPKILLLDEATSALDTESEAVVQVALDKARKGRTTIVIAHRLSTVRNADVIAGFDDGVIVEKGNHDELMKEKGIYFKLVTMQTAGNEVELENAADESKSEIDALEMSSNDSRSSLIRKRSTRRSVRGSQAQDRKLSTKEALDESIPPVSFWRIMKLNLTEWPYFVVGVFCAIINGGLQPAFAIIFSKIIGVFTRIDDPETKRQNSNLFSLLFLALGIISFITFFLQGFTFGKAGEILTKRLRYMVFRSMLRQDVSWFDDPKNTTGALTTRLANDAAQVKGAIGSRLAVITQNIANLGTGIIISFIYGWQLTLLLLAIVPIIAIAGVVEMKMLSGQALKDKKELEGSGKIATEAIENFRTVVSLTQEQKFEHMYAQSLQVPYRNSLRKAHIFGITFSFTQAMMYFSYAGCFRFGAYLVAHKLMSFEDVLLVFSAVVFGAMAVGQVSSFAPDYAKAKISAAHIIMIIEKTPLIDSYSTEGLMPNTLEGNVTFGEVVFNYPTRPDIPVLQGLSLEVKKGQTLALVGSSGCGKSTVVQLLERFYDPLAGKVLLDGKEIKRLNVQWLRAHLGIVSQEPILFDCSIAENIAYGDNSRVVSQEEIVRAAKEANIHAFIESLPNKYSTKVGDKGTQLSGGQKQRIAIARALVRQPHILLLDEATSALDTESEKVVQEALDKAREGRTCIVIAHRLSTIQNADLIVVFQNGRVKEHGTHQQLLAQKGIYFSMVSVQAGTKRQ
# Experimental: (§6) The intracellular accumulation of calcein inside the cells is measured by using FACS analysis. The points indicate mean values of fluorescent effect, vertical lines show standard error calculated on the base of two independent experiment replicates. The effect corresponds to a control of cells which were treated only with calcein.
# (§7) Test compounds were dissolved in DMSO as stock solutions and further dilutions were made with DMEM/HAM's F12 1:1 (Biochrom). […] A range of concentrations of test compound in a volume of 300-600 μL cell suspension were added, followed by a 15 min incubation at 37° C. Calcein-AM (300 μL) (MoBiTec, Göttingen, Germany) in DMEM/HAM's F12 1:1 was added to a final concentration of 1 μM and incubated for 30 min at 37° C.
# (§8) For the calcein-AM assay using flow cytometry, the cell density of suspensions in DMEM/Ham's F12 1:1 was 2.5×10^7 cells/ml.
# (§9) Gating on forward and side scatter in concert with propidium iodide staining allowed distinguishing live endothelial cells.
# (§10) Twenty thousand cells were sorted in each run, and data were processed and analyzed with CellQuest (Franklin Lakes, N.J., USA). All fluorescence signals were corrected for background fluorescence. Calcein-AM auto-hydrolysis was measured in control samples (n=6) without cells.
# [7] = molecular target: T1, P-glycoprotein (P-gp)
# Experimental: as §6, §7, §8, §9, §10
# [8] = Homo sapiens, ADR5000, read-out: IC50 CEM/ADR5000
# [9] = multidrug-resistant CEM/ADR5000 cells, XTT, read-out: IC50 CEM/ADR5000
structure (smiles),measurement,setting,value
"C/C=C/C[C@@H](C)C(=O)[C@H]1C(=O)N[C@@H](C(C)C)C(=O)N(C)CC(=O)N(C)[C@@H](CC(C)C)C(=O)N[C@@H](C(C)C)C(=O)N(C)[C@@H](CC(C)C)C(=O)N[C@@H](C)C(=O)N[C@H](C)C(=O)N(C)[C@@H](CC(C)C)C(=O)N(C)[C@@H](CC(C)C)C(=O)N(C)[C@@H](C(C)C)C(=O)N1C [PSC-833, reference compound]",Inhibition of luminal P-gp (NBD-CSA in capillary lumen),[1],inhibited
CC(C)C(=O)OC1O[C@@H]2O[C@@]3(C)CC[C@H]4[C@H](C)CCC([C@H]1C)[C@@]24OO3 (stereo partly shown) [Compound 10],Anti-angiogenic effect (in words),[2],dose-dependent anti-angiogenic effects
same,Degree of resistance,[3],22.46
same,Inhibition of proliferation and survival of HUVECs,[4],inhibited the proliferation and survival of HUVECs significantly stronger than artemisinin
"C[C@H]1C(OC(=O)c2ccccc2)O[C@@H]2O[C@@]3(C)CC[C@H]4[C@H](C)CCC1[C@@]24OO3 (stereo partly shown) [Compound 13, 10-dihydroartemisinyl benzoate]",Degree of resistance,[3],7.79
"CC1=CO[C@@H]2O[C@@]3(C)CC[C@H]4[C@H](C)CC[C@@H]1[C@@]24OO3 [Compound 4, Anhydrodihydroartemisinin]",Dead = number of dead embryos up to 48 hpf,"[2]; 50 μg/ml, N = 10 embryos",2
same,Vasc. Defects = number of surviving embryos with vascular defects,"[2]; 50 μg/ml, N = 10 embryos",0
same,Dead = number of dead embryos up to 48 hpf,"[2]; 75 μg/ml, N = 10 embryos",5
same,Other defects observed,"[2]; 75 μg/ml, N = 10 embryos","B, E"
same,Vasc. Defects = number of surviving embryos with vascular defects,"[2]; 75 μg/ml, N = 10 embryos",0
same,IC50,[3]; [8],33.6 ± 0.68 µM
same,IC50,[5]; Homo sapiens,83.4 ± 7.51 µM
"C[C@@H]1CC[C@H]2[C@@H](C)C(=O)O[C@@H]3O[C@@]4(C)CC[C@@H]1[C@]32OO4 [Compound 1, artemisinin]",P-gp inhibition judged by calcein fluorescence,"[6]; CCRF-CEM and CEM/ADR5000 cells, FIG. 5",do not act as P-gp inhibitors
same,EC max (intracellular calcein fluorescence compared to untreated controls),[6],114.1 ± 2.85^ %
same,IC50,[3]; [8],94.9 ± 30.5 µM
same,IC50,[5]; Homo sapiens,148 ± 16.6 µM
"CCC(C)OC1OC2OC3(C)CCC4C(C)CCC(C1C)C24OO3 (stereo not shown) [Compound 15, 10-(2′-Butyloxy)Dihydroartemisinin]",Inhibition of luminal P-gp (NBD-CSA in capillary lumen),[1],almost empty lumen
same,Dead = number of dead embryos up to 48 hpf,"[2]; 1.0 μg/ml, N = 10 embryos",0
same,Vasc. Defects = number of surviving embryos with vascular defects,"[2]; 1.0 μg/ml, N = 10 embryos",0
same,Dead = number of dead embryos up to 48 hpf,"[2]; 10 μg/ml, N = 10 embryos",1
same,Vasc. Defects = number of surviving embryos with vascular defects,"[2]; 10 μg/ml, N = 10 embryos",0
same,Dead = number of dead embryos up to 48 hpf,"[2]; 25 μg/ml, N = 10 embryos",0
same,Vasc. Defects = number of surviving embryos with vascular defects,"[2]; 25 μg/ml, N = 10 embryos",0
same,EC max (intracellular calcein fluorescence compared to untreated controls),[6],1180 ± 178.7%
same,EC50,[6],61.8 ± 9.62 µM
same,Degree of resistance,[3],0.47
same,IC50,[3]; [9],7.96 ± 3.76 µM
same,IC50,[5],16.7 ± 7.34 µM
"Cc1cc(C)c(/C=C2\C(=O)Nc3ccccc32)[nH]1 [SU5416, reference compound]",Formation of intersomitic vessels (ISVs) at 28 hpf,"[2]; 10 μg/ml, 28 hpf",completely blocked
same,ISV sprouting at 48 hpf compared to control embryos,"[2]; 10 μg/ml, 48 hpf",sprouted only minimally
"CCCC(=O)OC1O[C@@H]2O[C@@]3(C)CC[C@H]4[C@H](C)CCC([C@H]1C)[C@@]24OO3 (stereo partly shown) [Compound 9, 10-Dihydroartemisinyl Butyrate]",Dead = number of dead embryos up to 48 hpf,"[2]; 25 μg/ml, N = 30 embryos",17
same,Concentration at which intersomitic vessel (ISV) formation was suppressed,[2],1 µg/mL
same,Anti-angiogenic effect (in words),[2],dose-dependent anti-angiogenic effects
same,Degree of resistance,[3],0.51
"CCCC(CCC)C(=O)OC1O[C@@H]2O[C@@]3(C)CC[C@H]4[C@H](C)CCC([C@H]1C)[C@@]24OO3 (stereo partly shown) [Compound 11, 10-Dihydroartemisinyl 2′-Propylpentanoate]",Dead = number of dead embryos up to 48 hpf,"[2]; 10 μg/ml, N = 30 embryos",22
same,Concentration at which intersomitic vessel (ISV) formation was suppressed,[2],1 µg/mL
same,Anti-angiogenic effect (in words),[2],dose-dependent anti-angiogenic effects
same,Degree of resistance,[3],1.23
"C[C@H]1C(OC(=O)C(Cl)Cl)O[C@@H]2O[C@@]3(C)CC[C@H]4[C@H](C)CCC1[C@@]24OO3 (stereo partly shown) [Compound 8, 10-Dihydroartemisinyl 2′,2′-Dichloroacetate]",Inhibition of luminal P-gp (NBD-CSA in capillary lumen),[1],almost empty lumen
same,Anti-angiogenic effect (in words),[2],dose-dependent anti-angiogenic effects
C[C@H]1C(OC(=O)N(C)C)O[C@@H]2O[C@@]3(C)CC[C@H]4[C@H](C)CCC1[C@@]24OO3 (stereo partly shown) [Compound 14],Degree of resistance,[3],19.76
"C[C@H]1[C@H](OC(=O)CCC(=O)O)O[C@@H]2O[C@@]3(C)CC[C@H]4[C@H](C)CC[C@@H]1[C@@]24OO3 [Artesunate, artesunate, reference compound]",P-gp inhibition judged by calcein fluorescence,[7],do not act as P-gp inhibitors
same,Dead = number of dead embryos up to 48 hpf,"[2]; 25 μg/ml, N = 20 embryos",1
same,Vasc. Defects = number of surviving embryos with vascular defects,"[2]; 25 μg/ml, N = 20 embryos",0
same,Dead = number of dead embryos up to 48 hpf,"[2]; 50 μg/ml, N = 20 embryos",1
same,Vasc. Defects = number of surviving embryos with vascular defects,"[2]; 50 μg/ml, N = 20 embryos",2
same,Dead = number of dead embryos up to 48 hpf,"[2]; 100 μg/ml, N = 20 embryos",1
same,Vasc. Defects = number of surviving embryos with vascular defects,"[2]; 100 μg/ml, N = 20 embryos",6
same,Dead = number of dead embryos up to 48 hpf,"[2]; 200 μg/ml, N = 10 embryos",1
same,Vasc. Defects = number of surviving embryos with vascular defects,"[2]; 200 μg/ml, N = 10 embryos",9
same,Anti-angiogenic effect (in words),[2],dose-dependent anti-angiogenic effects
same,Behaviour in cell culture medium,[4]; starvation medium EGM-2EV,precipitation from the cell culture medium
"C[C@@H]1CC[C@H]2[C@@H](C)CO[C@@H]3O[C@@]4(C)CC[C@@H]1[C@]32OO4 [Compound 3, Deoxoartemisinin]",Degree of resistance,[3],0.49
same,IC50,[3]; [8],117 ± 8.2 µM
same,IC50,[5]; Homo sapiens,241 ± 50.7 µM
"CC1CCC2C(C)C(SCCN)OC3OC4(C)CCC1C32OO4 (stereo not shown) [Compound 16, 10-Dihydroartemisinyl Thioethylamine]",EC max (intracellular calcein fluorescence compared to untreated controls),[6],1011 ± 106.3%
same,EC50,[6],27.2 ± 4.69 µM
same,Degree of resistance,[3],3.88
same,IC50,[3]; [9],3.34 ± 0.64 µM
same,IC50,[5],0.86 ± 0.19 µM
"CC(=O)OC1O[C@@H]2O[C@@]3(C)CC[C@H]4[C@H](C)CCC([C@H]1C)[C@@]24OO3 (stereo partly shown) [Compound 7, 10-Dihydroartemisinyl acetate]",Anti-angiogenic effect (in words),[2],dose-dependent anti-angiogenic effects
same,Degree of resistance,[3],12.83
same,Inhibition of proliferation and survival of HUVECs,[4],inhibited the proliferation and survival of HUVECs significantly stronger than artemisinin
"C[C@H]1C(OC(=O)C(C)(C)C)O[C@@H]2O[C@@]3(C)CC[C@H]4[C@H](C)CCC1[C@@]24OO3 (stereo partly shown) [Compound 12, 10-Dihydroartemisinyl 2′,2′-Dimethylpropianate]",Dead = number of dead embryos up to 48 hpf,"[2]; 1.0 μg/ml, N = 10 embryos",0
same,Anti-angiogenic effect (in words),[2],a specific anti-angiogenic effect was not observed
same,Toxicity to embryos (in words),"[2]; zebrafish, in vivo",the most toxic at comparable doses
same,Degree of resistance,[3],2.65
